Calls of active or inactive are those of the source.
What was measured:
Format in all cases: functional
[1] = target: T1, Sentrin-specific protease 8 (Homo sapiens, UniProt Q96LD8);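 note: luminescence read-out of SENP8 inhibition, dose-response confirmation following an ultra-high-throughput screen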
T1 sequence (Q96LD8 whole entry): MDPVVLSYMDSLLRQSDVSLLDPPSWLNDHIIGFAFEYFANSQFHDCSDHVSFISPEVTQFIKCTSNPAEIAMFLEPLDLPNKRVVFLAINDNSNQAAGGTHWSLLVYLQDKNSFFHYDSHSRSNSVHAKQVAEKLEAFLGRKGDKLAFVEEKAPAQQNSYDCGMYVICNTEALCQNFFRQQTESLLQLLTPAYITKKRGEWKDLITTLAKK

[2] = target: T2, Sentrin-specific protease 7 (Homo sapiens, UniProt Q9BQF6);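 note: Luminescence-based dose-response confirmation of ultra-high-throughput screening hits, measuring inhibition of SENP7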
T2 sequence (Q9BQF6 whole entry): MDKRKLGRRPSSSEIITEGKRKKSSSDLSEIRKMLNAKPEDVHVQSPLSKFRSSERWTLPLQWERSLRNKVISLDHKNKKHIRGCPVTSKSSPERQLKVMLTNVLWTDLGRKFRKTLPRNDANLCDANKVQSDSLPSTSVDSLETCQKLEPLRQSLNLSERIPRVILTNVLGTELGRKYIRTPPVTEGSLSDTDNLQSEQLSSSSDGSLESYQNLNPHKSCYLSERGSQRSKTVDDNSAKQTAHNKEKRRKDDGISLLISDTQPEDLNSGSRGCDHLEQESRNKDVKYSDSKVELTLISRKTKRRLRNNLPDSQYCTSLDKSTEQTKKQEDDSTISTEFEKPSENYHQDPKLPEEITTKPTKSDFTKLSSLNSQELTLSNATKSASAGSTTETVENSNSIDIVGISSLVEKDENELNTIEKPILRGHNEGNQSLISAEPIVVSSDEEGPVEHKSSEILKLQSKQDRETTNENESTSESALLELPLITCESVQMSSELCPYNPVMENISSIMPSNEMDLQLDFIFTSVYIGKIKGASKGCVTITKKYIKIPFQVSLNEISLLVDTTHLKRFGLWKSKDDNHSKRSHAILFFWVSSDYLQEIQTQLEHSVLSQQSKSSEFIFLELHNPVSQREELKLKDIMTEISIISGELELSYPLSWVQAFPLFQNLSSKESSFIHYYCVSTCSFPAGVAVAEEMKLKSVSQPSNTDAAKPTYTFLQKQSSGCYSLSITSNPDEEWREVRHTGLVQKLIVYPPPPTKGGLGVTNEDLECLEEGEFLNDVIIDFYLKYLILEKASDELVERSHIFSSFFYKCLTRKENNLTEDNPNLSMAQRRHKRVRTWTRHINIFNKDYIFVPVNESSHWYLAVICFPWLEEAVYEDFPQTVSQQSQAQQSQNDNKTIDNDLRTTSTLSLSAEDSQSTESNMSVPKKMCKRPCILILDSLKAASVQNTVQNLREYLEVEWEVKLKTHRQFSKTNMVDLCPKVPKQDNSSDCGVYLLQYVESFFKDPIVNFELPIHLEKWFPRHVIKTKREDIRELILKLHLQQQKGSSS

[3] = viability of HCT116 lacking mutant beta-catenin – cell-based, human colon tumor, dose response (AID 1045);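 note: HCT116 colon tumor cells with beta catenin knocked out; cells exposed to compound for 60 hours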
[4] = target: Serine/threonine-protein kinase Nek2 (Homo sapiens, UniProt P51955)
[5] = target: Vascular endothelial growth factor receptor 2 (Homo sapiens, UniProt P35968)
[6] = target: Serine/threonine-protein kinase pim-2 (Homo sapiens, UniProt Q9P1W9);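 note: value comes from a broad kinase panel profiling study in which PIM2 was one of the panel members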
[7] = target: Dual specificity tyrosine-phosphorylation-regulated kinase 1A (Homo sapiens, UniProt Q13627);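 note: measured against DYRK1A as one member of a broad kinome profiling panel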
Aurora kinase B = Aurora kinase B (Homo sapiens, UniProt Q96GD4)
[8] = target: Mitogen-activated protein kinase 1 (Homo sapiens, UniProt P28482)
[9] = target: Fibroblast growth factor receptor 3 (Homo sapiens, UniProt P22607)
[10] = target: Cyclin-dependent kinase 5 (Homo sapiens, UniProt Q00535);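 note: CDK5 measured as one member of a kinase profiling panel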
[11] = target: Cyclin-dependent kinase 2 (Homo sapiens, UniProt P24941);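 note: CDK2 measured as one member of a broad kinome profiling panel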
[12] = target: Serine/threonine-protein kinase PLK3 (Homo sapiens, UniProt Q9H4B4)
[13] = target: Serine/threonine-protein kinase PLK1 (Homo sapiens, UniProt P53350);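 note: PLK1 measured as one member of a kinome-wide profiling panel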
[14] = target: Serine/threonine-protein kinase PLK4 (Homo sapiens, UniProt O00444);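 note: PLK4 measured as one member of a kinome-wide kinase profiling panel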
[15] = target: Interleukin-1 receptor-associated kinase 4 (Homo sapiens, UniProt Q9NWZ3)
[16] = target: RAC-alpha serine/threonine-protein kinase (Homo sapiens, UniProt P31749);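 note: AKT1 affinity measured as one member of a kinome-wide kinase profiling panel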
LIM domain kinase 1 = LIM domain kinase 1 (Homo sapiens, UniProt P53667); experiment: Navigating the Kinome. Panel member name: LIMK1
Ephrin type-A receptor 2 = Ephrin type-A receptor 2 (Homo sapiens, UniProt P29317);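 note: EPHA2 tested as one member of a kinome-wide kinase panel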
BJ = experiment: BJ-TERT fibroblast viability loss – cell-based, RAS-independent, luminescence, dose response (AID 1933); conditions: Homo sapiens
[17] = target: Small ubiquitin-related modifier 1 (Homo sapiens, UniProt P63165); experiment: SUMO1 protein-protein binding blockers, potency – biochemical, FRET, dose response (AID 624383); conditions: read-out: IC50_Mean
[18] = target: T3, Ubiquitin-conjugating enzyme E2 N (Homo sapiens, UniProt P61088)
T3 sequence (P61088 whole entry): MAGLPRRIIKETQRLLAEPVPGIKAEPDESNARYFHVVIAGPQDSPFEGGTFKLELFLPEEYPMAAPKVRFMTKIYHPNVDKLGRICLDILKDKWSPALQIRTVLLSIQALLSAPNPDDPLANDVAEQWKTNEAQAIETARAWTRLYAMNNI

Chain of Vascular endothelial growth factor receptor 2 (P35968 whole entry): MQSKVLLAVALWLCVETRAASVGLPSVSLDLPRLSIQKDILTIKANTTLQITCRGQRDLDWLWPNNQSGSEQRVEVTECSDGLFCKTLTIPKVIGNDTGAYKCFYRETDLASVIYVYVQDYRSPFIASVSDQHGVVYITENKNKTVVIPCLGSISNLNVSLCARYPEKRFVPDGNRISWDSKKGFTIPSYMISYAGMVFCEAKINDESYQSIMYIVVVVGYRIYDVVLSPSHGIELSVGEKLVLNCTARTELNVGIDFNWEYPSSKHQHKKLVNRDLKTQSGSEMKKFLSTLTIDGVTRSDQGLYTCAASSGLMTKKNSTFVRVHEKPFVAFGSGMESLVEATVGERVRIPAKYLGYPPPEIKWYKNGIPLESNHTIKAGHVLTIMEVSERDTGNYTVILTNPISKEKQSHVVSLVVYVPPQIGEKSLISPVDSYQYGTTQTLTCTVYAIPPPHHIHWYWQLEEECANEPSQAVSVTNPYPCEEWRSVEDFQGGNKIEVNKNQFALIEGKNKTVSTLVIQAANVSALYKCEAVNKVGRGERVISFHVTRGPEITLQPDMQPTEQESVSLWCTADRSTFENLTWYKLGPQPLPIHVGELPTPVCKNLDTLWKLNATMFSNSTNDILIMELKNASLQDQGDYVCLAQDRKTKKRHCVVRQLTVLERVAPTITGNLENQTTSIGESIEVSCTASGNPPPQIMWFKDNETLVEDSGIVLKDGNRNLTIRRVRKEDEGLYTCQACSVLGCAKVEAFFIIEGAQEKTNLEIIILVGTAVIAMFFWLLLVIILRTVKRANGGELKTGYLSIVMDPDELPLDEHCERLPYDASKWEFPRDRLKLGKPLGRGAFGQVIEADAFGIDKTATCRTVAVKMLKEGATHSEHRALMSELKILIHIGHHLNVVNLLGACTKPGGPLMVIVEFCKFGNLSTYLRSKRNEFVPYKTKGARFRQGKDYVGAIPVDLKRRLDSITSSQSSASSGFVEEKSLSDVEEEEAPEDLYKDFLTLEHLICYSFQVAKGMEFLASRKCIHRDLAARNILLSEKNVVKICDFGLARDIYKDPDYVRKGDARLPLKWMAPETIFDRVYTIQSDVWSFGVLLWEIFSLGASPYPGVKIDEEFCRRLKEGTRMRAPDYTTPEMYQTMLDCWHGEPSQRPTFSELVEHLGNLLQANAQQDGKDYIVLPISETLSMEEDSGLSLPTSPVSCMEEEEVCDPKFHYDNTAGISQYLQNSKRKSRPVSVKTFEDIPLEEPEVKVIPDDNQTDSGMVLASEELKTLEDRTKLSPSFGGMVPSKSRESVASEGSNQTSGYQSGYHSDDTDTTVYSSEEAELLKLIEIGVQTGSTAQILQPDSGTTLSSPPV
Chain of Serine/threonine-protein kinase pim-2 (Q9P1W9 whole entry): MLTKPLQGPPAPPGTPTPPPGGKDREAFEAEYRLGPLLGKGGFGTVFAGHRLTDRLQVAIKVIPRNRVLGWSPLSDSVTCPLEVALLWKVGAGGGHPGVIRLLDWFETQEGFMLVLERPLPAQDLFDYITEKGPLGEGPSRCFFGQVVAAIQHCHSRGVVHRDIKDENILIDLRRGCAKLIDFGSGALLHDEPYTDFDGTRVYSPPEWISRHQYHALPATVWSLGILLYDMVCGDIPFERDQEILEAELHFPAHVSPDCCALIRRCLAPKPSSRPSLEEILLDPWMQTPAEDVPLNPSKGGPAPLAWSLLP
Chain of Small ubiquitin-related modifier 1 (P63165 whole entry): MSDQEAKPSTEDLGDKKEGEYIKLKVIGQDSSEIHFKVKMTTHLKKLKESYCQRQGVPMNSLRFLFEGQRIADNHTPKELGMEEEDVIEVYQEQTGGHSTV
Chain of Serine/threonine-protein kinase PLK4 (O00444 whole entry): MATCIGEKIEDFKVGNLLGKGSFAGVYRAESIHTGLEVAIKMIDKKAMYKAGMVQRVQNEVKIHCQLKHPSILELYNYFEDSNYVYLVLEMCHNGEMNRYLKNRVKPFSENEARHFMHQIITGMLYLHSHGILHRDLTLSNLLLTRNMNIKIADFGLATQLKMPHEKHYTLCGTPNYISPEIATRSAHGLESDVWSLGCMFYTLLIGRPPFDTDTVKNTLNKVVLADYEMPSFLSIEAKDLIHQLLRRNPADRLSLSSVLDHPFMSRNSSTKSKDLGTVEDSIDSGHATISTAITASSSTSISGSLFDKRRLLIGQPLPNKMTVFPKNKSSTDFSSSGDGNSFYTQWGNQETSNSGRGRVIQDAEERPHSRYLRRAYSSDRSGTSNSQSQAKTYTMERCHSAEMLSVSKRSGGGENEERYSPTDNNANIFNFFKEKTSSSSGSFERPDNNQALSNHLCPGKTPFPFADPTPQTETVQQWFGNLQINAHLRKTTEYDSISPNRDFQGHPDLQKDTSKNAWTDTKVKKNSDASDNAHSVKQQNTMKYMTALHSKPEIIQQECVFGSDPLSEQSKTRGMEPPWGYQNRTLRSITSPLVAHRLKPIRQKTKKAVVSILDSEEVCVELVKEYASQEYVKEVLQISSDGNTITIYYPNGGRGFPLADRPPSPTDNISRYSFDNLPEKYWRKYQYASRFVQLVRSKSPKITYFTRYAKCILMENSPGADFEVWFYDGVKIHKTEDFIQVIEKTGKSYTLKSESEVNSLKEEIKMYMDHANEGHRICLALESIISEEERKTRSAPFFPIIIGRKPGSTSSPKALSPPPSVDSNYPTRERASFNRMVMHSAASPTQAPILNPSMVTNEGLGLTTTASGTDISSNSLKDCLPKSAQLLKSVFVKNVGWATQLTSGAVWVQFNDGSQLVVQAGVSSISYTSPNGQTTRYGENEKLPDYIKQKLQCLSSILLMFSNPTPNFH
Chain of Aurora kinase B (Q96GD4 whole entry): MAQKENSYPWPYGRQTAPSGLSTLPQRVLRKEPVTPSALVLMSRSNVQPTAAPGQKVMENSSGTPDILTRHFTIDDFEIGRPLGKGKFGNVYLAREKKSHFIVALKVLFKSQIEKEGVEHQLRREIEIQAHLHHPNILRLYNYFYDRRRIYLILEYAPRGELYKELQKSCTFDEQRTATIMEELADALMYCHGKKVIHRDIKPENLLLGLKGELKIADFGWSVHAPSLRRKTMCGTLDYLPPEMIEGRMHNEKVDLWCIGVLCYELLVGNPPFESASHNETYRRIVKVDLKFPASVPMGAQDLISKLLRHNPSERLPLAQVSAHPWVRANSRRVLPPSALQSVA
Chain of Fibroblast growth factor receptor 3 (P22607 whole entry): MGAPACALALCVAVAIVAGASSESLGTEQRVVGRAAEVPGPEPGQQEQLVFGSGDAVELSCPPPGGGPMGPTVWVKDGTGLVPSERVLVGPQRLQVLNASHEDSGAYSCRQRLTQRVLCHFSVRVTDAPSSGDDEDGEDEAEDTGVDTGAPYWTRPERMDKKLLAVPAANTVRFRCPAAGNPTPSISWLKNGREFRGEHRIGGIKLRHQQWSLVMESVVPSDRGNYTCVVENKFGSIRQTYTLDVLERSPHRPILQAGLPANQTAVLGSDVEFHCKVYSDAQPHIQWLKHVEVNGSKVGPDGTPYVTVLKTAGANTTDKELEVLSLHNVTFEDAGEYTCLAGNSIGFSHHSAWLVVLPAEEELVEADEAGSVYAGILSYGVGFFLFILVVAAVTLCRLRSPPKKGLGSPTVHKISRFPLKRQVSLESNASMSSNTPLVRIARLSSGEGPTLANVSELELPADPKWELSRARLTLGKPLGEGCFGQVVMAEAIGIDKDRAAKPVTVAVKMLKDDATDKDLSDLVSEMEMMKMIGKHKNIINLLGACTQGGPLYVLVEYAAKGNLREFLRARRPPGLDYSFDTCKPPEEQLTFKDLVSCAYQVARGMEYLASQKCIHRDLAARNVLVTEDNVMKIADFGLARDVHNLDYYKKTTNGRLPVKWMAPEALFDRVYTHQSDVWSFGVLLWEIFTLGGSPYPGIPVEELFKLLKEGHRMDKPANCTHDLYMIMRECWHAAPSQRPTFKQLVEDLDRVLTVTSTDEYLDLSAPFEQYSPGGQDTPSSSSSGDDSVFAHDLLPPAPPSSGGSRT
Chain of RAC-alpha serine/threonine-protein kinase (P31749 whole entry, the tested form may be a part): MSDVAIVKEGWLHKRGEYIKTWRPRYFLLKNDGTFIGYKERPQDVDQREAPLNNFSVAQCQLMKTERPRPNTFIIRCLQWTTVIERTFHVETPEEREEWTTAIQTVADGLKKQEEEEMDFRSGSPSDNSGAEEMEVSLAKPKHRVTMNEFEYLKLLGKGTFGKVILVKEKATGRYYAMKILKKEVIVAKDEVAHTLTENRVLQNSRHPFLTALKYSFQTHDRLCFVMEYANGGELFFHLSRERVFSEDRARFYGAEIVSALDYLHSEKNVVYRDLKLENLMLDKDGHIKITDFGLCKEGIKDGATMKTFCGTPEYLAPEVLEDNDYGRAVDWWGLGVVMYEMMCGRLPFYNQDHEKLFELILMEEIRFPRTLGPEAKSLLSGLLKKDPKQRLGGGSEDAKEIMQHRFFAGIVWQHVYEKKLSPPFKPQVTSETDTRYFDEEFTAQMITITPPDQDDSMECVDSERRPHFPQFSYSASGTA
Chain of Serine/threonine-protein kinase Nek2 (P51955 whole entry): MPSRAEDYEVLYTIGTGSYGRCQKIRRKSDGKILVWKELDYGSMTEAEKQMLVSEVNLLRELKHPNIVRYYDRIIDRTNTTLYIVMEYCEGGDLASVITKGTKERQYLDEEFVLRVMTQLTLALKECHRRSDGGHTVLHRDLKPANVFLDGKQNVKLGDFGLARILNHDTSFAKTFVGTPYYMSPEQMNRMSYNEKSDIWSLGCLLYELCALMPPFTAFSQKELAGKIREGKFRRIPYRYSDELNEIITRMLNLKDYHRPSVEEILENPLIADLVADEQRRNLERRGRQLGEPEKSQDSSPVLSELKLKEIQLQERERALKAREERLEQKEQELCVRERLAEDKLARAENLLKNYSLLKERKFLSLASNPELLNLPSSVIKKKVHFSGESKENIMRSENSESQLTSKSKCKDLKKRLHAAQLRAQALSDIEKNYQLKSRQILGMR

SMILES: CCC(C)NC(=O)c1c(N)n(CCCOC)c2nc3ccccc3nc12 (configuration not stated)
- IC50 [1]: 2.06 µM (active)
- IC50 [2]: 1.36 µM (active)
- EC50 [3]: 34.1 µM (active)

SMILES: CC(=NNC(=N)N)c1cc(NC(=O)NCCCCCCNC(=O)Nc2cc(C(C)=NNC(=N)N)cc(C(C)=NNC(=N)N)c2)cc(C(C)=NNC(=N)N)c1
- Ki [4]: 3.16 µM (active)
- Ki [5]: > 7.94 µM (inactive)
- Ki [6]: 0.2 µM (active)
- Ki [7]: > 6.31 µM (inactive)
- Ki (Aurora kinase B): 1.26 µM (active)
- Ki [8]: > 7.94 µM (inactive)
- Ki [9]: > 2 µM (inactive)
- Ki [10]: 2 µM (active)
- Ki [11]: 0.501 µM (active)
- Ki [12]: 6.31 µM (active)
- Ki [13]: > 7.94 µM (inactive)
- Ki [14]: > 3.98 µM (inactive)
- Ki [15]: 1.58 µM (active)
- Ki [16]: 0.398 µM (active)
- Ki (LIM domain kinase 1): 1.26 µM (active)
- Ki (Ephrin type-A receptor 2): > 3.16 µM (inactive)

SMILES: Cc1cc(N)c2cc(NC(=O)/C=C/c3ccccc3Cl)ccc2n1
- EC50 (BJ): 2.62 µM (inconclusive)
- IC50 [17]: 7.51 µM (active)
- IC50 [18]: 3 µM (active)
